Test system: SEM cells
Assay: cell viability relative to DMSO control; higher = less cytotoxic
Settings: 48 h
How it was run: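 Before seeding, each leukemia line was adapted for at least four passages in each medium. NOMO1 or SEM cells (500 cells/well) and P12-Ichikawa cells (1000 cells/well) went into 1536-well plates at 5 μl, then received library compounds in DMSO by pin dosing across 11 threefold concentrations, 47 μM to 0.79 nM. Readout was CellTiter-Glo One luminescence after 48 h at 37°C, and viability is given as a per-plate percentage of DMSO wells, with cell-free wells as background.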

[1] = HPLM + 10% dialyzed FBS, 0.000781 µM
[2] = HPLM + 10% dialyzed FBS, 0.00234 µM
[3] = HPLM + 10% dialyzed FBS, 0.00702 µM
[4] = HPLM + 10% dialyzed FBS, 0.0211 µM
[5] = HPLM + 10% dialyzed FBS, 0.0632 µM
[6] = HPLM + 10% dialyzed FBS, 0.19 µM
[7] = HPLM + 10% dialyzed FBS, 0.569 µM
[8] = HPLM + 10% dialyzed FBS, 1.71 µM
[9] = HPLM + 10% dialyzed FBS, 5.12 µM
[10] = HPLM + 10% dialyzed FBS, 15.4 µM
[11] = HPLM + 10% dialyzed FBS, 46.1 µM
[12] = RPMI 5 mM glucose + 10% FBS, 0.000781 µM
[13] = RPMI 5 mM glucose + 10% FBS, 0.00234 µM
[14] = RPMI 5 mM glucose + 10% FBS, 0.00702 µM
[15] = RPMI 5 mM glucose + 10% FBS, 0.0211 µM
[16] = RPMI 5 mM glucose + 10% FBS, 0.0632 µM
[17] = RPMI 5 mM glucose + 10% FBS, 0.19 µM
[18] = RPMI 5 mM glucose + 10% FBS, 0.569 µM
[19] = RPMI 5 mM glucose + 10% FBS, 1.71 µM
[20] = RPMI 5 mM glucose + 10% FBS, 5.12 µM
[21] = RPMI 5 mM glucose + 10% FBS, 15.4 µM
[22] = RPMI 5 mM glucose + 10% FBS, 46.1 µM
[23] = RPMI 5 mM glucose + 10% dialyzed FBS, 0.000781 µM
[24] = RPMI 5 mM glucose + 10% dialyzed FBS, 0.00234 µM
[25] = RPMI 5 mM glucose + 10% dialyzed FBS, 0.00702 µM
[26] = RPMI 5 mM glucose + 10% dialyzed FBS, 0.0211 µM
[27] = RPMI 5 mM glucose + 10% dialyzed FBS, 0.0632 µM
[28] = RPMI 5 mM glucose + 10% dialyzed FBS, 0.19 µM
[29] = RPMI 5 mM glucose + 10% dialyzed FBS, 0.569 µM
[30] = RPMI 5 mM glucose + 10% dialyzed FBS, 1.71 µM
[31] = RPMI 5 mM glucose + 10% dialyzed FBS, 5.12 µM
[32] = RPMI 5 mM glucose + 10% dialyzed FBS, 15.4 µM
[33] = RPMI 5 mM glucose + 10% dialyzed FBS, 46.1 µM

Compound | cell viability [1] | cell viability [2] | cell viability [3] | cell viability [4] | cell viability [5] | cell viability [6] | cell viability [7] | cell viability [8] | cell viability [9] | cell viability [10] | cell viability [11] | cell viability [12] | cell viability [13] | cell viability [14] | cell viability [15] | cell viability [16] | cell viability [17] | cell viability [18] | cell viability [19] | cell viability [20] | cell viability [21] | cell viability [22] | cell viability [23] | cell viability [24] | cell viability [25] | cell viability [26] | cell viability [27] | cell viability [28] | cell viability [29] | cell viability [30] | cell viability [31] | cell viability [32] | cell viability [33]
CC1=C(/C=C/C(C)=C/C=C/C(C)=C/C(=O)Nc2ccc(O)cc2)C(C)(C)CCC1 | 84.5% | 77.4% | 81.4% | 104% | 86.9% | 83.9% | 85.1% | 42.5% | 23.1% | 5.89% | 3.35% | 85% | 85.5% | 92.2% | 96.9% | 81.4% | 88.6% | 83% | 65% | 30.7% | 9.06% | 3.24% | 76.8% | 71.5% | 80.1% | 85.3% | 76.6% | 80.8% | 82.2% | 37.5% | 20% | 4.93% | 2.92%
CC1(C)OC/2=C(\[C@H](NCC3=CC=CC=C3)[C@@H]1O)C(=O)C4=CC=CC=C4C2=O | 103% | 95.6% | 91% | 115% | 98.4% | 111% | 106% | 110% | 83.6% | 41.1% | 9.15% | 80.9% | 71.7% | 98.4% | 83.9% | 94.1% | 91.9% | 108% | 99.7% | 54.2% | 24.5% | 5.4% | 96.8% | 74.4% | 109% | 97.7% | 94.4% | 106% | 109% | 92.5% | 83.4% | 48.1% | 8.42%
c1ccc2c(-c3cnn4cc(-c5ccc(N6CCNCC6)cc5)cnc34)ccnc2c1 | 75.6% | 78.2% | 121% | 125% | 139% | 130% | 122% | 100% | 2.9% | 1.26% | 2.65% | 84% | 71.6% | 140% | 138% | 153% | 122% | 121% | 97.1% | 61% | 7.66% | 3.32% | 69% | 72.2% | 118% | 147% | 151% | 142% | 114% | 89.2% | 66.7% | 45.9% | 3.66%
CC1=CC2=C(O1)C(=C3OC(=O)\C=C(C)/C3=C2)C | 70.2% | 81.2% | 86.8% | 88.7% | 84% | 84.5% | 83.8% | 92.5% | 90.6% | 88.9% | 74.1% | 72% | 91.5% | 93.7% | 96.8% | 86.7% | 103% | 98.3% | 103% | 105% | 92.2% | 91% | 89% | 100% | 94.8% | 102% | 93.4% | 107% | 109% | 104% | 121% | 111% | 105%
CCC(CC)[C@H](NC(C)=O)[C@@H]1[C@H](O)[C@@H](C(=O)O)C[C@H]1NC(=N)N | 62% | 68% | 77.2% | 87.2% | 76.1% | 32.7% | 57.9% | 79.1% | 78.3% | 66.1% | 87.8% | 89.2% | 84.2% | 84.6% | 80.4% | 103% | 17.8% | 94.4% | 102% | 87.2% | 77.7% | 88.3% | 69.9% | 71.9% | 80.8% | 80.9% | 81.8% | 56.7% | 50.9% | 95.9% | 114% | 71.9% | 68.6%
CC1OC(OC/2=C(/OC3=C(C(=CC(=C3)O)O)C2=O)C4=CC=C(O)C=C4)C(O)C(OC(C)=O)C1OC(C)=O (stereo not given) | 117% | 120% | 116% | 113% | 105% | 112% | 106% | 113% | 106% | 102% | 77.7% | – | – | – | – | – | – | – | – | – | – | – | 100% | 101% | 114% | 102% | 110% | 103% | 98.1% | 95.5% | 108% | 90.5% | 77.1%
COc1cc(N2CCC(N3CCN(C)CC3)CC2)ccc1Nc1ncnc(Nc2ccccc2[S+](=O)([O-])C(C)C)n1 | 69.6% | 81.5% | 85.8% | 99.3% | 67.4% | 106% | 104% | 88.4% | 67.6% | 25.2% | 11.9% | 71.3% | 72.6% | 90.7% | 93.8% | 59.6% | 123% | 109% | 81% | 59.4% | 22.5% | 7.39% | 87.4% | 90.2% | 82.2% | 85.7% | 69.8% | 132% | 127% | 109% | 72.7% | 26.4% | 12.9%

From the supplement of paper PMC11451515
